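48-hour exposure; five concentrations; linearly interpolated endpoints. GI50: concentration for 50% inhibition of growth.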 Active and inactive are the calls of the source. Rule as the data show it: active = GI50 up to about 1.1 µM and inactive = higher.
What was measured:
Experiment in all cases: NCI-60 cell line screen, 48 h
786-0 = system: 786-0
A549 = system: A549
ACHN = system: ACHN
CAKI-1 = system: CAKI-1
CCRF-CEM = system: CCRF-CEM
COLO 205 = system: COLO 205
DU-145 = system: DU-145
EKVX = system: EKVX
HCC 2998 = system: HCC 2998
HCT-116 = system: HCT-116
HCT-15 = system: HCT-15
HL-60 = system: HL-60
HOP-62 = system: HOP-62
HOP-92 = system: HOP-92
HT-29 = system: HT-29
Hs-578T = system: Hs-578T
IGROV-1 = system: IGROV-1
K562 = system: K562
KM12 = system: KM12
LOX IMVI = system: LOX IMVI
M14 = system: M14
MCF7 = system: MCF7
MDA-MB-231 = system: MDA-MB-231
MDA-MB-435 = system: MDA-MB-435
MDA-N = system: MDA-N
MOLT-4 = system: MOLT-4
Malme-3M = system: Malme-3M
NCI-H226 = system: NCI-H226
NCI-H23 = system: NCI-H23
NCI-H460 = system: NCI-H460
NCI/ADR-RES = system: NCI/ADR-RES
OVCAR-3 = system: OVCAR-3
OVCAR-4 = system: OVCAR-4
OVCAR-5 = system: OVCAR-5
OVCAR-8 = system: OVCAR-8
PC-3 = system: PC-3
RPMI-8226 = system: RPMI-8226
SF-268 = system: SF-268
SF-295 = system: SF-295
SF-539 = system: SF-539
SK-MEL-28 = system: SK-MEL-28
SK-MEL-2 = system: SK-MEL-2
SK-MEL-5 = system: SK-MEL-5
SK-OV-3 = system: SK-OV-3
SN12C = system: SN12C
SNB-75 = system: SNB-75
SR = system: SR
SW-620 = system: SW-620
T47D = system: T47D
TK-10 = system: TK-10
U-251 = system: U-251
UACC-257 = system: UACC-257
UACC-62 = system: UACC-62
UO-31 = system: UO-31
A498 = system: A498
NCI-H522 = system: NCI-H522
RXF 393 = system: RXF 393
SNB-19 = system: SNB-19

Measured: GI50

c1ccc2c(c1)c1c(n2CCOCCN2CCCC2)CCCC1
inactive: 786-0 16.1 µM | A549 28.1 µM | ACHN 20.1 µM | CAKI-1 27.2 µM | CCRF-CEM 20.9 µM | COLO 205 19.5 µM | DU-145 30.3 µM | EKVX 25.9 µM | HCC 2998 16.6 µM | HCT-116 17.1 µM | HL-60 12.2 µM | HOP-62 15.5 µM | HOP-92 27.7 µM | HT-29 20 µM | Hs-578T 14.9 µM | IGROV-1 23.7 µM | K562 15 µM | KM12 > 10 µM | LOX IMVI 18.5 µM | M14 15.6 µM | MCF7 16 µM | MDA-MB-231 16.4 µM | MDA-MB-435 18.9 µM | MDA-N 19.4 µM | MOLT-4 16.7 µM | Malme-3M 17.1 µM | NCI-H226 22.4 µM | NCI-H23 22.6 µM | NCI-H460 15 µM | NCI/ADR-RES 19 µM | OVCAR-3 25.4 µM | OVCAR-4 16.8 µM | OVCAR-5 17.8 µM | OVCAR-8 22.4 µM | PC-3 18.6 µM | RPMI-8226 18.2 µM | SF-268 29 µM | SF-295 37.2 µM | SF-539 14.5 µM | SK-MEL-28 16 µM | SK-MEL-2 16.4 µM | SK-MEL-5 15.2 µM | SK-OV-3 31.3 µM | SN12C 17.5 µM | SNB-75 27.3 µM | SR 17.2 µM | SW-620 16.2 µM | T47D 28.7 µM | TK-10 19.5 µM | U-251 13.1 µM | UACC-257 22.4 µM | UACC-62 18.6 µM | UO-31 12.8 µM
17 µM: HCT-15

Cc1cc2c(c(C)c1O)C(C)(C)CN2C(=O)C(C)(C)C
> 100 µM: HCT-15
inactive: 786-0 > 100 µM | A498 66.7 µM | A549 > 100 µM | ACHN > 100 µM | CCRF-CEM 77.6 µM | COLO 205 86.7 µM | DU-145 > 100 µM | EKVX > 100 µM | HCC 2998 > 100 µM | HCT-116 84.7 µM | HL-60 77.4 µM | HOP-62 > 100 µM | HOP-92 20 µM | HT-29 57 µM | Hs-578T > 100 µM | IGROV-1 > 100 µM | K562 41.5 µM | KM12 > 100 µM | LOX IMVI > 100 µM | M14 80.7 µM | MCF7 > 100 µM | MDA-MB-231 86.9 µM | MDA-MB-435 56 µM | MDA-N > 100 µM | MOLT-4 59.4 µM | NCI-H226 26.1 µM | NCI-H23 42.5 µM | NCI-H460 > 100 µM | NCI-H522 > 100 µM | NCI/ADR-RES 16.5 µM | OVCAR-3 14.4 µM | OVCAR-4 54.1 µM | OVCAR-5 > 100 µM | OVCAR-8 > 100 µM | PC-3 46.3 µM | RPMI-8226 > 100 µM | RXF 393 22.7 µM | SF-268 > 100 µM | SF-295 > 100 µM | SF-539 > 100 µM | SK-MEL-28 > 100 µM | SK-MEL-5 25.1 µM | SK-OV-3 > 100 µM | SN12C > 100 µM | SNB-19 > 100 µM | SNB-75 28 µM | SW-620 > 100 µM | T47D 56.5 µM | TK-10 > 100 µM | U-251 > 100 µM | UACC-257 > 100 µM | UACC-62 > 100 µM | UO-31 74.5 µM

COc1ccc(/C=C2\N=C3Sc4c([nH]cnc4=O)N3C2=O)cc1
inactive: 786-0 > 100 µM | A498 > 100 µM | A549 > 100 µM | ACHN > 100 µM | CAKI-1 > 100 µM | CCRF-CEM > 100 µM | COLO 205 > 100 µM | DU-145 > 100 µM | EKVX 78.9 µM | HCC 2998 13.1 µM | HCT-116 > 100 µM | HL-60 > 100 µM | HOP-62 > 100 µM | HOP-92 > 100 µM | HT-29 > 100 µM | Hs-578T > 100 µM | IGROV-1 > 100 µM | K562 > 100 µM | KM12 > 100 µM | LOX IMVI > 100 µM | M14 > 100 µM | MCF7 > 100 µM | MDA-MB-231 > 100 µM | MDA-MB-435 > 100 µM | MDA-N > 100 µM | MOLT-4 > 100 µM | Malme-3M > 100 µM | NCI-H226 > 100 µM | NCI-H23 > 100 µM | NCI-H522 > 100 µM | NCI/ADR-RES > 100 µM | OVCAR-3 > 100 µM | OVCAR-4 > 100 µM | OVCAR-5 > 100 µM | OVCAR-8 > 100 µM | PC-3 > 100 µM | RPMI-8226 > 100 µM | RXF 393 > 100 µM | SF-268 > 100 µM | SF-295 > 100 µM | SF-539 > 100 µM | SK-MEL-28 > 100 µM | SK-MEL-2 > 100 µM | SK-MEL-5 > 100 µM | SK-OV-3 > 100 µM | SN12C > 100 µM | SNB-19 > 100 µM | SNB-75 > 100 µM | SW-620 > 100 µM | T47D > 100 µM | TK-10 > 100 µM | U-251 > 100 µM | UACC-257 > 100 µM | UO-31 > 100 µM
> 100 µM: HCT-15

From ChEMBL document CHEMBL1201862, “PubChem BioAssay data set” (2004)
